Results: article PMC10112521, “High-throughput AR dimerization assay identifies androgen disrupting chemicals and metabolites” (Frontiers in Toxicology, 2023)
Structures can show the parent of a compound that is named as a salt.

Legend:
AR2 cells (HepG2-AR2) = assay: Alamar Blue (resazurin) post hoc cell viability / cytotoxicity assay in AR2 cells; conditions: spid Viability, sheet antagonist_fits; for hill_tp (Hill model top): 0 where win_model is Constant
Description: For antagonist mode and cytotoxicity data, well-level normalized response (resp) was calculated as: resp=100 * RLU−bval/pval−bval where pval is the median RLU value of the MEC positive control wells (minimum four wells).

human AR [1] = target: T1, human AR (Homo sapiens, UniProt P10275); assay: AR2 assay, agonist mode: ligand-dependent AR homodimerization (NanoBiT luciferase complementation) in stable HepG2-AR2 cells; format: cell-based; conditions: sheet agonist_fits; maximum median response;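 also: Log2 fold change of luminescence over DMSO vehicle wells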
T1 sequence (P10275 1-920) 1: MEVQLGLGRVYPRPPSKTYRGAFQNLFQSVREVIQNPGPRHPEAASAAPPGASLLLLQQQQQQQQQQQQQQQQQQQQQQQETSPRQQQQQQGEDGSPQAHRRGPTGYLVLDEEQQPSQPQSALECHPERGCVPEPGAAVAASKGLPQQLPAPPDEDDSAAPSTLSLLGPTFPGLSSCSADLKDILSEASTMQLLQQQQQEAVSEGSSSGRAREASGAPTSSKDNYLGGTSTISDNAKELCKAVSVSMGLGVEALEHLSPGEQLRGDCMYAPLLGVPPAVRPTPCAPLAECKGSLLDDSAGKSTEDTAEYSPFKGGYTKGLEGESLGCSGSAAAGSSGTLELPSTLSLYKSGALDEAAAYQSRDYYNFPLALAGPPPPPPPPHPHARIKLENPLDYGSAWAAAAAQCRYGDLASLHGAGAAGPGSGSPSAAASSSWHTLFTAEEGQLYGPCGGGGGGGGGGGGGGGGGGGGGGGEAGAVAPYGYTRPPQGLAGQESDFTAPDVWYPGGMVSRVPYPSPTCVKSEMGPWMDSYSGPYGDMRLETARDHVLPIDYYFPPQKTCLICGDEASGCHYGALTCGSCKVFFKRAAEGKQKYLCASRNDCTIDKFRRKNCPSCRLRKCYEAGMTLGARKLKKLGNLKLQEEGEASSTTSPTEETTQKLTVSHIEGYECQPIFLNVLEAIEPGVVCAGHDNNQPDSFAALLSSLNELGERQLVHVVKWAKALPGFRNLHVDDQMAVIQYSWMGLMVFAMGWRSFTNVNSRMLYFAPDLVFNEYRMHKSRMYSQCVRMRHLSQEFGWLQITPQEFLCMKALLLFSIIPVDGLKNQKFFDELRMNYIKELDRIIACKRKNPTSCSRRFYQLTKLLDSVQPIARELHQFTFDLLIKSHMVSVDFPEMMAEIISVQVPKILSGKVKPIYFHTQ
T1 sequence (P10275 1-920) 2: T1 sequence (P10275 1-920) 1

human AR [2] = target: T1, human AR; assay: AR2 assay, antagonist mode: disruption of R1881 (10 nM)-induced AR homodimerization in HepG2-AR2 cells; format: cell-based; conditions: spid AR_antagonist, sheet antagonist_fits

Row | Molecule | max_med (maximum median response) (AR2 cells (HepG2-AR2)) | hill_tp (Hill model top) (AR2 cells (HepG2-AR2)) | further results
1 | Cc1c(COC(=O)[C@@H]2[C@H](/C=C(\Cl)C(F)(F)F)C2(C)C)cccc1-c1ccccc1 (racemic) [Bifenthrin] | 19.5548 | 23.386 | –
2 | O=C(c1ccccc1)c1ccc(O)cc1O [2,4-Dihydroxybenzophenone] | 13.9578 | 7.468 | –
3 | CCCCC(CC)COC(=O)c1ccc(O)cc1 (stereo not drawn) [2-Ethylhexylparaben] | 99.7953 | 102.21 | –
4 | O=S(=O)(c1ccc(O)cc1)c1ccc(O)cc1 [4,4'-Sulfonyldiphenol] | 24.7063 | 39.4827 | –
5 | CCC(C)(C)c1ccc(O)cc1 [4-(2-Methylbutan-2-yl)phenol] | 17.1743 | 12.5636 | –
6 | CCCCCCCCCCCCc1ccc(O)cc1 [4-Dodecylphenol] | 99.7202 | 99.8404 | –
7 | O=C(O)c1ccc(O)cc1 [4-Hydroxybenzoic acid] | 5.145 | 0 | –
8 | CCCCCCCCCc1ccc(O)cc1 [4-Nonylphenol] | 99.78 | 100.689 | –
9 | C#C[C@]1(O)CC[C@H]2[C@@H]3CCc4cc(O)ccc4[C@H]3CC[C@@]21C [17alpha-Ethinylestradiol] | 47.5761 | 60.3321 | –
10 | C[C@]12CC[C@@H]3c4ccc(O)cc4CC[C@H]3[C@@H]1CC[C@@H]2O [17beta-Estradiol] | 11.6181 | 15.1874 | –
11 | COP(=O)(NC(C)=O)SC (stereo not drawn) [Acephate] | 10.7949 | 0 | –
12 | CC(C)(C#N)c1cc(Cn2cncn2)cc(C(C)(C)C#N)c1 [Anastrozole] | 9.832 | 0 | –
13 | CCCCN(CC)c1c([N+](=O)[O-])cc(C(F)(F)F)cc1[N+](=O)[O-] [Benfluralin] | 17.0663 | 11.4566 | –
14 | CCCCC(CC)COC(=O)CCCCC(=O)OCC(CC)CCCC (stereo not drawn) [Bis(2-ethylhexyl)hexanedioate] | 8.67 | 0 | –
15 | CCCCC(CC)COC(=O)c1ccccc1C(=O)OCC(CC)CCCC (stereo not drawn) [Bis(2-ethylhexyl)phthalate] | 27.6798 | 16.491 | –
16 | N#Cc1c(Cl)c(Cl)c(Cl)c(C#N)c1Cl [Chlorothalonil] | 85.6054 | 117.241 | –
17 | COP(=S)(OC)Oc1nc(Cl)c(Cl)cc1Cl [Chlorpyrifos-methyl] | 15.7636 | 36.973 | –
18 | CCN(CC)CCOc1ccc(C(=C(Cl)c2ccccc2)c2ccccc2)cc1 [Clomiphene citrate] | 99.676 | 104.376 | max_med (human AR [1]): -0.008157; max_med (maximum median response) (human AR [2]): 103.883; win_model (winning concentration-response model) (human AR [2]): Hill; hill_gw (Hill model slope) (human AR [2]; 0 where win_model is Constant): 2.036; hill_tp (Hill model top) (human AR [2]; 0 where win_model is Constant): 106.625
19 | C[C@]12C[C@H](O)[C@H]3[C@@H](CCC4=CC(=O)CC[C@@]43C)[C@@H]1CC[C@@H]2C(=O)CO [Corticosterone] | -0.2958 | – | –
20 | O=c1oc2cc(O)ccc2c2oc3cc(O)ccc3c12 [Coumestrol] | 39.9111 | 51.0591 | –
21 | C#C[C@]1(O)CC[C@H]2[C@@H]3CCC4=Cc5oncc5C[C@]4(C)[C@H]3CC[C@@]21C [Danazol] | 99.6979 | 119.707 | –
22 | CCOP(=S)(OCC)Oc1cc(C)nc(C(C)C)n1 [Diazinon] | 6.875 | 0 | –
23 | O=C1C(Cl)=C(Cl)C(=O)c2ccccc21 [Dichlone, dichlone] | 100 | 121.536 | –
24 | Clc1ccc(C(c2ccc(Cl)cc2)C(Cl)(Cl)Cl)cc1 [Dichlorodiphenyltrichloroethane] | 73.7925 | 94.5035 | –
25 | O=C(OC1CCCCC1)c1ccccc1C(=O)OC1CCCCC1 [Dicyclohexyl phthalate] | -2.0313 | – | –

Row | Molecule | max_med (maximum median response) (AR2 cells (HepG2-AR2)) | hill_tp (Hill model top) (AR2 cells (HepG2-AR2)) | further results
26 | CC/C(=C(/CC)c1ccc(O)cc1)c1ccc(O)cc1 [Diethylstilbestrol] | 99.7753 | 119.773 | –
27 | CCCCCCOC(=O)c1ccccc1C(=O)OCCCCCC [Dihexyl phthalate] | 14.953 | 18.2229 | –
28 | CCCCCOC(=O)c1ccccc1C(=O)OCCCCC [Dipentyl phthalate] | 14.047 | 13.5743 | –
29 | CC(C)[C@H](C(=O)O[C@H](C#N)c1cccc(Oc2ccccc2)c1)c1ccc(Cl)cc1 [Esfenvalerate] | -0.2527 | – | –
30 | COP(=S)(OC)Oc1ccc(SC)c(C)c1 [Fenthion] | 20.1632 | 17.5948 | –
31 | CC(C)C(C(=O)OC(C#N)c1cccc(Oc2ccccc2)c1)c1ccc(Cl)cc1 (stereo not drawn) [Fenvalerate] | 17.5112 | 13.0316 | –
32 | CC(C)Oc1cccc(NC(=O)c2ccccc2C(F)(F)F)c1 [Flutolanil] | 9.82 | 12.8643 | –
33 | CCCCCC(=O)O[C@]1(C(C)=O)CC[C@H]2[C@@H]3CCC4=CC(=O)CC[C@]4(C)[C@H]3CC[C@@]21C [Hydroxyprogesterone caproate] | -5.885 | – | –
34 | O=c1c(O)c(-c2ccc(O)cc2)oc2cc(O)cc(O)c12 [Kaempferol] | 36.6036 | 30.9927 | –
35 | COCC(=O)N(c1c(C)cccc1C)C(C)C(=O)OC (stereo not drawn) [Metalaxyl] | 11.6523 | 11.8758 | –
36 | CCc1cccc(C)c1N(C(=O)CCl)C(C)COC (stereo not drawn) [Metolachlor] | 26.908 | 20.923 | –
37 | CSc1nnc(C(C)(C)C)c(=O)n1N [Metribuzin] | 29.1814 | 43.0001 | –
38 | CCCCC(CC)COC(=O)c1ccccc1C(=O)O (stereo not drawn) [Mono(2-ethylhexyl) phthalate] | 10.2899 | 5.023 | –
39 | C[Si]1(C)O[Si](C)(C)O[Si](C)(C)O[Si](C)(C)O1 [Octamethylcyclotetrasiloxane] | 28.4969 | 38.8496 | –
40 | CCCCC(CC)CN1C(=O)[C@@H]2[C@H](C1=O)[C@@H]1C=C[C@H]2C1 (stereo partly drawn) [Octylbicycloheptenedicarboximide] | 1.86 | 0 | –
41 | Oc1c(Cl)c(Cl)c(Cl)c(Cl)c1Cl [Pentachlorophenol] | 53.4588 | 63.2778 | –
42 | CC(C)=CC1C(C(=O)OCc2cccc(Oc3ccccc3)c2)C1(C)C (stereo not drawn) [Phenothrin] | 11.6591 | 28.3579 | –
43 | COP(=S)(OC)SCN1C(=O)c2ccccc2C1=O [Phosmet] | 21.0825 | 27.9412 | –
44 | C#CC(C)(C)NC(=O)c1cc(Cl)cc(Cl)c1 [Propyzamide] | 10.1701 | 0 | –
45 | O=C(c1ccc(OCCN2CCCCC2)cc1)c1c(-c2ccc(O)cc2)sc2cc(O)ccc12 [Raloxifene hydrochloride] | 99.7657 | – | –
46 | CC(C)(C)C(O)(CCc1ccc(Cl)cc1)Cn1cncn1 (stereo not drawn) [Tebuconazole] | 20.78 | 45.6531 | –
47 | CCC[CH2][Sn]([Cl])([CH2]CCC)[CH2]CCC [Tributylchlorostannane] | 99.8606 | 99.7567 | –
48 | Clc1ccc(Cl)cc1 [p-Dichlorobenzene] | 4.77 | – | –
49 | Abamectin | 81.1222 | – | –
